Measured values taken from patent US11234954B2, “Low-dose doxepin for treatment of sleep disorders in elderly patients” (Pernix Sleep, Inc., priority 2006, dated 2022).
Like-named read-outs stand apart in the source and are kept apart here.

Columns and labels:
[1] = tested on: Adult Patients (Ages 18-64) with Primary Insomnia; experiment: Subjective sleep parameters, adult crossover study (Example 3); format: in vivo, human; conditions: Per-Protocol N = 61
Description: (§1) The primary and secondary efficacy assessments were as described above in Example 1.

[2] = tested on: primary elderly insomnia patients with sleep maintenance difficulties; experiment: Safety and TEAEs, Phase III elderly study (Example 2)
Procedure: A phase III, randomized, double-blind, placebo-controlled, parallel-group, multicenter study was conducted to assess the long term efficacy and safety of two dose levels of doxepin HCl, 1 mg and 3 mg, in primary elderly insomnia patients with sleep maintenance difficulties.
Doxepin 1 mg tablets or 3 mg tablets (lot number 3044567) were administered as a single oral dose for 85 consecutive nights during the 12-week Double-blind Treatment Period.

[3] = tested on: Adult Patients (Ages 18-64) with Primary Insomnia; experiment: PSG efficacy, four-period crossover dose-response study in adults 18-64 (Example 3); format: in vivo, human; conditions: for LPS, Mean / SE, Mean / TST, Mean / WASO, Mean / WTAS, Mean: Per-Protocol N = 61; for WTDS, observed mean (±SD) (primary efficacy variable): WTDS typically expressed in minutes
Description: as §1

[4] = tested on: patients aged 65 years or older with primary sleep maintenance insomnia; conditions: Per-Protocol N = 71; for WTDS, Mean (primary efficacy variable): WTDS typically expressed in minutes
Procedure: As used herein, the term “polysomnography” (PSG) refers a diagnostic test during which a number of physiologic variables are measured and recorded during sleep. Physiologic sensor leads are placed on the patient in order to record brain electrical activity, eye and jaw muscle movement, leg muscle movement, airflow, respiratory effort (chest and abdominal excursion), EKG and oxygen saturation. Information is gathered from all leads and fed into a computer and outputted as a series of waveform tracings which enable the technician to visualize the various waveforms, assign a score for the test, and assist in the diagnostic process. The primary efficacy variable, wake time during sleep (WTDS) and various secondary efficacy variables are all based on the PSG and are defined as follows.
“Wake Time During Sleep” (WTDS), typically expressed in minutes, is the number of wake events (epochs) after the onset of persistent sleep and prior to final awakening, divided by two. Each epoch is defined as a 30-second duration on the PSG recording.
“Wake Time After Sleep” (WTAS), typically expressed in minutes, is the number of epochs after the final awakening until the end of PSG recording (i.e., a wake epoch immediately prior to the end of the recording), divided by two.
“Wake After Sleep Onset” (WASO) is the sum of WTDS and WTAS.
“Latency to Persistent Sleep” (LPS), typically expressed in minutes, is the number of epochs from the beginning of the PSG recording (lights-out) to the start of the first 20 consecutive non-wake epochs, divided by two.
“Total Sleep Time” (TST), typically expressed in minutes, is the number of non-wake epochs from the beginning of the PSG recording to the end of the recording, divided by two.
“Sleep Efficiency” (SE) is the TST divided by the time in bed (8 hours), multiplied by 100 and expressed as a percentage. This also can be divided into SE for each third-of-the-night of sleep, reflecting the SE for each 160 minute time interval across the night. Finally, SE can be measured for individual hours during the night or sleep period, for example the final hour of the sleep period.
“NAASO” refers to the number of awakenings after sleep onset.
A randomized, multi-center, double-blind, placebo-controlled, four-period crossover, dose-response study was designed to assess the effects of doxepin (1 mg, 3 mg and 6 mg) compared with placebo in patients aged 65 years or older with primary sleep maintenance insomnia. Patients received a single-blind placebo for two consecutive nights during the PSG screening period, and double-blind study drug for two consecutive nights during each of the four treatment periods. […] Patients were allowed to leave the sleep center during the day after each PSG assessment was complete. A 5- or 12-day study drug-free interval separated each PSG assessment visit. The duration of study participation per patient was approximately 7 to 11 weeks.
Patients who qualified for study entry, based on the screening PSG assessments, were randomized to a treatment sequence using a Latin square design. A final study visit was performed for patients either after completion of the four treatment periods or upon discontinuation from the study. Efficacy assessments were made at each visit and safety assessments were performed throughout the study.
The main inclusion criteria were male and/or female patients, aged 65 years or older, in good general health with at least a 3-month history of Diagnostic and Statistical Manual of Mental Disorders, fourth Edition (DSM-IV)-defined primary insomnia, reporting each of the following on four of seven nights prior to PSG screening: ≤6.5 hours of total sleep time (TST), ≥60 min of wakefulness after sleep onset (WASO) and ≥20 min of latency to sleep onset (LSO). Doxepin HCl 1 mg, 3 mg and 6 mg capsules, and placebo capsules, were provided as a single dose for oral administration.
The primary efficacy assessment was WTDS.

CN(C)CCC=C1c2ccccc2COc2ccccc21 (mixture of isomers) [Doxepin]
LSO, Mean ([1]; 1 mg): 46.9 min | sTST, Mean ([1]; 1 mg): 364.2 min | sWASO, Mean ([1]; 1 mg): 56.1 min | LSO, Mean ([1]; 3 mg): 46.1 min | sTST, Mean ([1]; 3 mg): 379.7 min | sWASO, Mean ([1]; 3 mg): 50.5 min | LSO, Mean ([1]; 6 mg): 44.1 min | sTST, Mean ([1]; 6 mg): 383.0 min | sWASO, Mean ([1]; 6 mg): 42.1 min | deaths during the study or within 30 days following last dose ([2]; 1 mg and 3 mg): no reported deaths | Infections and Infestations, subjects (%) ([2]; 1 mg, N = 77): 12 (16%) | Upper respiratory tract infection, subjects (%) ([2]; 1 mg, N = 77): 2 (3%) | Urinary tract infection, subjects (%) ([2]; 1 mg, N = 77): 2 (3%) | Infections and Infestations, subjects (%) ([2]; 3 mg, N = 82): 11 (13%) | Upper respiratory tract infection, subjects (%) ([2]; 3 mg, N = 82): 1 (1%) | Urinary tract infection, subjects (%) ([2]; 3 mg, N = 82): 0 (0%) | LPS, Mean ([3]; 1 mg): 30.1 min | SE, Mean ([3]; 1 mg): 84.7% | TST, Mean ([3]; 1 mg): 406.5 min | WASO, Mean ([3]; 1 mg): 47.3 min | WTAS, Mean ([3]; 1 mg): 4.1 min | WTDS, observed mean (±SD) (primary efficacy variable) ([3]; 1 mg): 43.2 (28.2) | LPS, Mean ([3]; 3 mg): 30.8 min | SE, Mean ([3]; 3 mg): 86.5% | TST, Mean ([3]; 3 mg): 415.2 min | WASO, Mean ([3]; 3 mg): 38.6 min | WTAS, Mean ([3]; 3 mg): 5.2 min | WTDS, observed mean (±SD) (primary efficacy variable) ([3]; 3 mg): 33.4 (21.87) | LPS, Mean ([3]; 6 mg): 27.9 min | SE, Mean ([3]; 6 mg): 86.9% | TST, Mean ([3]; 6 mg): 417.2 min | WASO, Mean ([3]; 6 mg): 38.8 min | WTAS, Mean ([3]; 6 mg): 2.5 min | WTDS, observed mean (±SD) (primary efficacy variable) ([3]; 6 mg): 35.3 (25.17) | LPS, Mean ([4]; 1 mg): 28.3 min | NAASO, Mean ([4]; 1 mg): 12.3 | SE, Mean ([4]; 1 mg): 78.5% | TST, Mean ([4]; 1 mg): 376.8 min | WASO, Mean ([4]; 1 mg): 80.5 min | WTAS, Mean ([4]; 1 mg): 10.4 min | WTDS, Mean (primary efficacy variable) ([4]; 1 mg): 70.1 | WTDS, Mean (primary efficacy variable) ([4]; 1 mg, listed as doxepin): 70.1 (32.78) | LPS, Mean ([4]; 3 mg): 23.7 min | NAASO, Mean ([4]; 3 mg): 12.8 | SE, Mean ([4]; 3 mg): 81.0% | TST, Mean ([4]; 3 mg): 388.8 min | WASO, Mean ([4]; 3 mg): 72.3 min | WTAS, Mean ([4]; 3 mg): 5.9 min | WTDS, Mean (primary efficacy variable) ([4]; 3 mg): 66.4 | WTDS, Mean (primary efficacy variable) ([4]; 3 mg, listed as doxepin): 66.4 (31.56) | LPS, Mean ([4]; 6 mg): 22.4 min | NAASO, Mean ([4]; 6 mg): 12.5 | SE, Mean ([4]; 6 mg): 82.8% | TST, Mean ([4]; 6 mg): 397.4 min | WASO, Mean ([4]; 6 mg): 65.2 min | WTAS, Mean ([4]; 6 mg): 5.0 min | WTDS, Mean (primary efficacy variable) ([4]; 6 mg): 60.2 | WTDS, Mean (primary efficacy variable) ([4]; 6 mg, listed as doxepin): 60.2 (28.00)
